Values quoted from earlier work, collected in article PMC9851200, “Multiparameter phenotypic screening for endogenous TFEB and TFE3 translocation identifies novel chemical series modulating lysosome function” (Autophagy, 2022).

Legend:
Parameters in all cases: method as in original PKIS2 published data
[1] = biological target: kinases (KINOMEscan panel) (Homo sapiens, UniProt Q96GD4); details: kinase AURKB; Published KINOMEscan; ref original PKIS2 published data; cited from earlier work
[2] = biological target: kinases (KINOMEscan panel) (Homo sapiens, UniProt Q13177); details: PAK2; Published KINOMEscan; ref original PKIS2 published data; cited from earlier work
kinases (KINOMEscan panel) (Homo sapiens, UniProt Q13177), sequence (Q13177 whole entry): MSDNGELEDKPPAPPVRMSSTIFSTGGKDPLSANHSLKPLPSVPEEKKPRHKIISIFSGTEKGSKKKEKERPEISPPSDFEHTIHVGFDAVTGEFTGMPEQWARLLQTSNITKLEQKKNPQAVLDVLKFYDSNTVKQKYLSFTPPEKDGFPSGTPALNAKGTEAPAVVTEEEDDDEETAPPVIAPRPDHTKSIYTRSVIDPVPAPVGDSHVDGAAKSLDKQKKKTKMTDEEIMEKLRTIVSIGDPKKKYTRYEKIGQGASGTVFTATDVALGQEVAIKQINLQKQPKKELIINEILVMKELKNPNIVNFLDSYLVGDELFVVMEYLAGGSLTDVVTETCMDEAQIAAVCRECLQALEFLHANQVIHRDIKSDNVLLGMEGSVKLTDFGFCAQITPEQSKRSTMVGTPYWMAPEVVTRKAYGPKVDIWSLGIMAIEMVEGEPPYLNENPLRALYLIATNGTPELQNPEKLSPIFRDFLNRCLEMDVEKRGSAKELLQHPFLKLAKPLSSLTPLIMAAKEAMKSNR

[3] = biological target: T1, kinases (KINOMEscan panel) (Homo sapiens, UniProt Q9NRP7); details: STK36; Published KINOMEscan; ref original PKIS2 published data; cited from earlier work
T1 sequence (Q9NRP7 1-1315): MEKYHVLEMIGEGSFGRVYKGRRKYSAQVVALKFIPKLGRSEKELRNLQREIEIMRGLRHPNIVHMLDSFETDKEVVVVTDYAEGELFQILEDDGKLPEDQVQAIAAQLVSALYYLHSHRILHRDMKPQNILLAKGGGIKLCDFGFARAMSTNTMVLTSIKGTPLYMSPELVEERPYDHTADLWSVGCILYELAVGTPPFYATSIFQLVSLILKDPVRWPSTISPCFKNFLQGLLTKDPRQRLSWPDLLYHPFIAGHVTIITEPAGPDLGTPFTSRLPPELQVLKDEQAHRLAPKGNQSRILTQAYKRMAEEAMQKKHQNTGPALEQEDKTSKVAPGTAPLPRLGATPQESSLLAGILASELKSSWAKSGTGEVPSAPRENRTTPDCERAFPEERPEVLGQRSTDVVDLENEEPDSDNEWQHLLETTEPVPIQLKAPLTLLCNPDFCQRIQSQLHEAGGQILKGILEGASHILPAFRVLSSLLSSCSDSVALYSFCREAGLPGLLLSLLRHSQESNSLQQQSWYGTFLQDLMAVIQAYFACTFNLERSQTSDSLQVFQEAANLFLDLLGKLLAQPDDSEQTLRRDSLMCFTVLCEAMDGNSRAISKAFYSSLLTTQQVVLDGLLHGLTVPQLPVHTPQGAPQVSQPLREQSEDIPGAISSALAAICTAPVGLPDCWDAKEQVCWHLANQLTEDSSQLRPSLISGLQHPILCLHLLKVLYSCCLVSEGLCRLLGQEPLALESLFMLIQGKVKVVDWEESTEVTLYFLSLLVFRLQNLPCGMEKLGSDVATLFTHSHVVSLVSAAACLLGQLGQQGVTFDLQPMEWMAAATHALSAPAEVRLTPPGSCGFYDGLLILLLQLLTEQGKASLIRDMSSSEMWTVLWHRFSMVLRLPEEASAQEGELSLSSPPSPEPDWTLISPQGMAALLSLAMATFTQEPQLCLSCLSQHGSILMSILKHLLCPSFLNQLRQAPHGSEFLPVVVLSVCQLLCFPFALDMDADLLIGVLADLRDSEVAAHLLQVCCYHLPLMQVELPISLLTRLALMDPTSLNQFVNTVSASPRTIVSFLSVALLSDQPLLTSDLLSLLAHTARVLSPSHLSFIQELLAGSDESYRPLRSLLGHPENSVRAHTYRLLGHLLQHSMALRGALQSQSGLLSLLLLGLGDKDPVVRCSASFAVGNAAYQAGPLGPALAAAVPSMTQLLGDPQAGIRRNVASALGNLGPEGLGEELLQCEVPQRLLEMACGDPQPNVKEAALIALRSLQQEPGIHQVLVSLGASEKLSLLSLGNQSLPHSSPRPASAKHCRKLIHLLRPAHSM

[4] = biological target: kinases (KINOMEscan panel) (Homo sapiens, UniProt Q13555); details: CAMK2G; Published KINOMEscan; ref original PKIS2 published data; cited from earlier work
kinases (KINOMEscan panel) (Homo sapiens, UniProt Q13555), sequence (Q13555 whole entry): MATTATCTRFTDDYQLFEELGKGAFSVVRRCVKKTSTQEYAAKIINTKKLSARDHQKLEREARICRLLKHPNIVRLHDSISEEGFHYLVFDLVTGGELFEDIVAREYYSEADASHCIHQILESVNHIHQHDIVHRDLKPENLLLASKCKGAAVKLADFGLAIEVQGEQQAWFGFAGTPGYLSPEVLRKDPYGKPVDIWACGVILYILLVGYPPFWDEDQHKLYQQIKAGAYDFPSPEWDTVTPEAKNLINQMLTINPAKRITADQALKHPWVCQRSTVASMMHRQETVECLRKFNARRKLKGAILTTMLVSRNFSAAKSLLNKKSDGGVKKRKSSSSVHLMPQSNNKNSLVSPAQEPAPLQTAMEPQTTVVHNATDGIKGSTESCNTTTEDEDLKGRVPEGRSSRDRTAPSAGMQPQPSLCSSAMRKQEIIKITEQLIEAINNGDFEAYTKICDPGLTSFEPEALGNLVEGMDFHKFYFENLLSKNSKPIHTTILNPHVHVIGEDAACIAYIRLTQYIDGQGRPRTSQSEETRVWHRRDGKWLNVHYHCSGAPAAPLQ

[5] = biological target: kinases (KINOMEscan panel) (Homo sapiens, UniProt Q9Y6M4); details: CSNK1G3; Published KINOMEscan; ref original PKIS2 published data; cited from earlier work
kinases (KINOMEscan panel) (Homo sapiens, UniProt Q9Y6M4), sequence (Q9Y6M4 whole entry): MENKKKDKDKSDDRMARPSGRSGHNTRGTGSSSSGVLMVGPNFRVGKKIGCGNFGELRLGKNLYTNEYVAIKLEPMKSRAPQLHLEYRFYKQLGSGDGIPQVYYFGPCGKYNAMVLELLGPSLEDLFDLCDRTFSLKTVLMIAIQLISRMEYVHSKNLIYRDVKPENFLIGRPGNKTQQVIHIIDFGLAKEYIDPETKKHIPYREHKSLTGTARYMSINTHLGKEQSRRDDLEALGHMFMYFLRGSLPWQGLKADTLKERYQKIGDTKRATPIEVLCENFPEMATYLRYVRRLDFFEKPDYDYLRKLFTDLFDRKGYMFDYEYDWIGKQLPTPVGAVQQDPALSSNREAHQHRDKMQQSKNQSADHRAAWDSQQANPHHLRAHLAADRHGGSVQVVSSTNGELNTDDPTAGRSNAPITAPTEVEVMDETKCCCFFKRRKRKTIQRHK

[6] = biological target: T2, kinases (KINOMEscan panel) (Homo sapiens, UniProt Q96L34); details: kinase MARK4; Published KINOMEscan; ref original PKIS2 published data; cited from earlier work
T2 sequence (Q96L34 1-752): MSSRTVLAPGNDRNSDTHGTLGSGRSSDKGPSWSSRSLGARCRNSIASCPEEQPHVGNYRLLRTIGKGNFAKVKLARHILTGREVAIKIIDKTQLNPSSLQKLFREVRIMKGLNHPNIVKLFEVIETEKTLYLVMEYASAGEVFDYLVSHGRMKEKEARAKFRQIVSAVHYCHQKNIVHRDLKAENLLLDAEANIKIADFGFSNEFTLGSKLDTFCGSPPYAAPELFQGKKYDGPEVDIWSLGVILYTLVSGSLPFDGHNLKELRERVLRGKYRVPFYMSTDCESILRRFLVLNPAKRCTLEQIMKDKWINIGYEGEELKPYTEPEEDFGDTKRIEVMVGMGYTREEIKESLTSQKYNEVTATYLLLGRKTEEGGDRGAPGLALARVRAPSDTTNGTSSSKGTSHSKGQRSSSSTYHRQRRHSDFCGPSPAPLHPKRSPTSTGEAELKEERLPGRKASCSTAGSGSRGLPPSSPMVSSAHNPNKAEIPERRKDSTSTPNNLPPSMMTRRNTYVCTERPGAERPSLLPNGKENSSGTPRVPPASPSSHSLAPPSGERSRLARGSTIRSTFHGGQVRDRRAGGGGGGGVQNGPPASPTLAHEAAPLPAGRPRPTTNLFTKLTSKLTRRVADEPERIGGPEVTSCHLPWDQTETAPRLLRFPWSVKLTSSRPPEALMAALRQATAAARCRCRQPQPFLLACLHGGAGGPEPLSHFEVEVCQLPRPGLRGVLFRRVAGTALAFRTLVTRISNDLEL

[7] = biological target: kinases (KINOMEscan panel) (Homo sapiens, UniProt P11309); details: Published KINOMEscan; ref original PKIS2 published data; cited from earlier work
kinases (KINOMEscan panel) (Homo sapiens, UniProt P11309), sequence (P11309 whole entry): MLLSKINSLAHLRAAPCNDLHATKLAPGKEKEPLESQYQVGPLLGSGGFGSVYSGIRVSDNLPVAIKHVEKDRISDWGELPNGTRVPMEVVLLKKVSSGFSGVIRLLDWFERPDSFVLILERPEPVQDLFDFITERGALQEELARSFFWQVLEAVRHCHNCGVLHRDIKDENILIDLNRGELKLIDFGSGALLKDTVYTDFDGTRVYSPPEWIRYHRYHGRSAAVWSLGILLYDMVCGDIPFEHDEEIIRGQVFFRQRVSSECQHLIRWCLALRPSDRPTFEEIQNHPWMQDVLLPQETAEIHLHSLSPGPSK

[8] = biological target: kinases (KINOMEscan panel) (Homo sapiens, UniProt Q9UEW8); details: Published KINOMEscan; ref original PKIS2 published data; cited from earlier work
[9] = biological target: kinases (KINOMEscan panel) (Homo sapiens, UniProt P08631); details: kinase HCK; Published KINOMEscan; ref original PKIS2 published data; cited from earlier work
kinases (KINOMEscan panel) (Homo sapiens, UniProt P08631), sequence (P08631 whole entry): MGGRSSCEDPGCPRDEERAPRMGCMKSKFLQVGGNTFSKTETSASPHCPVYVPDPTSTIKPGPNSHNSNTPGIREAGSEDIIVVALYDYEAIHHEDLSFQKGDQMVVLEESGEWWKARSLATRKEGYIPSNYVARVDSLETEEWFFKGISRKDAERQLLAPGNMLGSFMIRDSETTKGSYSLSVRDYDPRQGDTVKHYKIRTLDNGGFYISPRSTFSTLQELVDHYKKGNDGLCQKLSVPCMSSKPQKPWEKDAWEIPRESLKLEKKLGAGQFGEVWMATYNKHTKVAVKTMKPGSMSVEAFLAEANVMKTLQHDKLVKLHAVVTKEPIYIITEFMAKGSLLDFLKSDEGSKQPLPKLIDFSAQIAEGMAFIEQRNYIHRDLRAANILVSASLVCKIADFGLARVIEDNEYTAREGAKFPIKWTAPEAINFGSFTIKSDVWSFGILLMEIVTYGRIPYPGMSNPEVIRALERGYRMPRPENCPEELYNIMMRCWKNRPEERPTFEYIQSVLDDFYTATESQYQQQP

kinases (KINOMEscan panel) (Homo sapiens, UniProt Q96GD4), sequence (Q96GD4 whole entry): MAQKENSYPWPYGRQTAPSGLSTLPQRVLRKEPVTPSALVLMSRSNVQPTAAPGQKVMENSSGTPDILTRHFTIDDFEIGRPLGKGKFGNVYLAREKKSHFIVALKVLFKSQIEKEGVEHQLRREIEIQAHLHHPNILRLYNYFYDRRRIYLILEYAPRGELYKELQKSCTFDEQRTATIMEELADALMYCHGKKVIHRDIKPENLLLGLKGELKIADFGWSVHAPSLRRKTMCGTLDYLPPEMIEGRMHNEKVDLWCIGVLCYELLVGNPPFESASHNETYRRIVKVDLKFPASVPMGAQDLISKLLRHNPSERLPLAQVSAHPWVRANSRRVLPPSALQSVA

Cc1cccc(-c2nc(Nc3ccncc3)c3ccccc3n2)n1 [NK215]
KINOMEscan AURKB [1]: 10
KINOMEscan PAK2 [2]: 0
KINOMEscan STK36 [3]: 5
KINOMEscan CAMK2G [4]: 0
KINOMEscan CSNK1G3 [5]: 12
KINOMEscan MARK4 [6]: 25
KINOMEscan PIM1 [7]: 0
KINOMEscan STK39 [8]: 0
KINOMEscan HCK [9]: 11
